We go through one molecule from ChEMBL document CHEMBL1141745, “New Sesquiterpene Lactones from Illicium floridanum” (J Nat Prod, 1998).

The nature of this data set: Neurotoxicity against ip dosed mouse. It counts as toxicity, organism-based. Particulars: in vivo.

In general, LD50 refers to the dose at which mortality reaches 50%. Low values mean greater toxicity, high ones lower toxicity. Molecule `C[C@@H]1C[C@@H](O)[C@@]2(O)[C@@]13C[C@@H](OC(=O)[C@H]3O)[C@](C)(O)[C@@]21COC1=O` [ANISATIN] returned a 50% lethal dose (LD50) of 1 mg/kg.
